Laboratory results as given in paper PMC9310948 (Chemcatchem, 2022).

Molecular target: H. orenii β-glucosidase (GH1) (Halothermothrix orenii, UniProt B8CYA8)
Experiment: p-nitrophenol release, absorbance […] nm
Assay type: biochemical
Details: 50 mM HEPES pH 7.4, 10 mM substrate

H. orenii β-glucosidase (GH1), sequence (B8CYA8 1-451): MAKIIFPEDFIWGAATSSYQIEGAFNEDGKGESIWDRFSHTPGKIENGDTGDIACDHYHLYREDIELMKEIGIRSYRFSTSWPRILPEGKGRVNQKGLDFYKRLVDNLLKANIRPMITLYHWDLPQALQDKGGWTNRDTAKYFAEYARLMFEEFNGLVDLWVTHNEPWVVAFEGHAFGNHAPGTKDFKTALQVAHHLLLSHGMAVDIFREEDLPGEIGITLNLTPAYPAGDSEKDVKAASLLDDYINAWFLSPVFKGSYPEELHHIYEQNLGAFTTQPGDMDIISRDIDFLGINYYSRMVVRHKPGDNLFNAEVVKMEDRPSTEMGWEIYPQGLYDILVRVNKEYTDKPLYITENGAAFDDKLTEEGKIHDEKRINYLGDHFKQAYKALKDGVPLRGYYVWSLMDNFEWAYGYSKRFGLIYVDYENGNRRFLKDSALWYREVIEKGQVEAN

O=[N+]([O-])c1ccc(O[C@@H]2O[C@H](CO)[C@@H](O)[C@H](O)[C@H]2O)cc1 [p-nitrophenyl glucoside]
p-nitrophenol release, absorbance 420 nm: monitoring the enzymatic rate of hydrolysis of p‐nitrophenyl glucoside by a UV‐Vis assay
